Data set [1] can be described thus: in vitro. To be noted: human, uninfected MT-4 cells, CC50 (nM), same protocol as Test A, CellTiter-Glo. The method in brief:
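Cytoprotection read-out: CellTiter-Glo chemiluminescence after 5 days at 37 °C of HIV-IIIb-infected MT-4 cells (m.o.i. 0.003) with compound in 10-point 3-fold dilutions, quadruplicate, 10% FBS. Cytotoxicity (CC50) measured identically without virus.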

Data set [2] concerns HIV-IIIb. Kind of data set: Test A: Antiviral assay in MT4 cells. To be noted: Human immunodeficiency virus 1, IIIB, MT4, 120 h, read-out: % inhibition at 2 μM, percent inhibition of virus-induced cell killing, from dose response curve at 2 uM drug; MT-4 cells infected with HIV-IIIb, 5 days, CellTiter-Glo. It is filed as cell-based, HIV-1.

In turn, `CN1Cc2c(C(F)(F)F)nn(CC(=O)N[C@@H](Cc3cc(F)cc(F)c3)c3ncccc3-c3ccc(F)c(C(N)=O)c3)c2C1` [Example 235, (S)-5-(2-(2-(3,5-difluorophenyl)-1-(2-(5-methyl-3-(trifluoromethyl)-5,6-dihydropyrrolo[3,4-c]pyrazol-1(4H)-yl)acetamido)ethyl)pyridin-3-yl)-2-fluorobenzamide] displayed a CC50 at 5 days in data set [1] greater than 53200 nM. Moreover, the inhibition at 2 µM in data set [2] worked out at 12%.
The matching figures for `CC(C)c1cc(C(F)(F)F)n(CC(=O)N[C@@H](Cc2cc(F)cc(F)c2)c2ncccc2-c2ccc(F)c(C(N)=O)c2)n1` [Example 236D, (S)-5-(2-(2-(3,5-difluorophenyl)-1-(2-(3-isopropyl-5-(trifluoromethyl)-1H-pyrazol-1-yl)acetamido)ethyl)pyridin-3-yl)-2-fluorobenzamide]: 25600 nM and 15%.
`NC(=O)c1cc(-c2cccnc2[C@H](Cc2cc(F)cc(F)c2)NC(=O)Cn2nc(C(F)(F)F)c3c2CC(=O)C3)ccc1F` [Example 237, (S)-5-(2-(2-(3,5-difluorophenyl)-1-(2-(5-oxo-3-(trifluoromethyl)-5,6-dihydrocyclopenta[c]pyrazol-1(4H)-yl)acetamido)ethyl)pyridin-3-yl)-2-fluorobenzamide] displayed a 50% cytotoxic concentration (CC50) at 5 days in data set [1] of 38200 nM. In addition, the inhibition at 2 µM in data set [2] stood at 1%.
In the same order, the values of `CC(C)(C)c1cc(C(F)(F)F)n(CC(=O)N[C@@H](Cc2cc(F)cc(F)c2)c2ncccc2-c2ccc(F)c(C(N)=O)c2)n1` [Example 238E, (S)-5-(2-(1-(2-(3-(tert-butyl)-5-(trifluoromethyl)-1H-pyrazol-1-yl)acetamido)-2-(3,5-difluorophenyl)ethyl)pyridin-3-yl)-2-fluorobenzamide] are 17000 nM and 12%.
Turning to `NC(=O)c1cc(-c2cccnc2[C@H](Cc2cc(F)cc(F)c2)NC(=O)Cn2nc(C(F)(F)F)c3c2CC(F)(F)C3)ccc1F` [Example 239, (S)-5-(2-(1-(2-(5,5-difluoro-3-(trifluoromethyl)-5,6-dihydrocyclopenta[c]pyrazol-1(4H)-yl)acetamido)-2-(3,5-difluorophenyl)ethyl)pyridin-3-yl)-2-fluorobenzamide], the 50% cytotoxic concentration (CC50) at 5 days in data set [1] was 19400 nM. Also, the inhibition at 2 µM in data set [2] was 18%.
Turning to `NC(=O)c1cc(-c2cccnc2[C@H](Cc2cc(F)cc(F)c2)NC(=O)Cn2nc(C(F)F)c3c2CC(F)(F)C3)ccc1F` [Example 241D, (S)-5-(2-(1-(2-(3-(difluoromethyl)-5,5-difluoro-5,6-dihydrocyclopenta[c]pyrazol-1(4H)-yl)acetamido)-2-(3,5-difluorophenyl)ethyl)pyridin-3-yl)-2-fluorobenzamide], the 50% cytotoxic concentration (CC50) at 5 days in data set [1] amounted to 25400 nM. The inhibition at 2 µM in data set [2] came to 78%.
On to `N#Cc1nn(CC(=O)N[C@@H](Cc2cc(F)cc(F)c2)c2ncccc2-c2ccc(F)c(C(N)=O)c2)c2c1C1CC1C2` (stereo partly drawn) [Example 242D, 5-(2-((1S)-1-(2-(3-cyano-3b,4,4a,5-tetrahydro-1H-cyclopropa[3,4]cyclopenta[1,2-c]pyrazol-1-yl)acetamido)-2-(3,5-difluorophenyl)ethyl)pyridin-3-yl)-2-fluorobenzamide], for which the CC50 at 5 days in data set [1] is 25500 nM. Also, in data set [2], the inhibition at 2 µM came out at 97%.
The matching figures for `NC(=O)c1cc(-c2cccnc2[C@H](Cc2cc(F)cc(F)c2)NC(=O)Cn2nc3c(c2C(F)F)C2CC2C3O)ccc1F` (stereo partly drawn) [Example 243, 5-(2-((1S)-1-(2-(3-(difluoromethyl)-5-hydroxy-3b,4,4a,5-tetrahydro-2H-cyclopropa[3,4]cyclopenta[1,2-c]pyrazol-2-yl)acetamido)-2-(3,5-difluorophenyl)ethyl)pyridin-3-yl)-2-fluorobenzamide]: greater than 53200 nM and 33%.
`CC(C)(C)c1cc(C(F)(F)F)nn1CC(=O)N[C@@H](Cc1cc(F)cc(F)c1)c1ncccc1-c1ccc(F)c(C(N)=O)c1` [Example 244B, (S)-5-(2-(1-(2-(5-(tert-butyl)-3-(trifluoromethyl)-1H-pyrazol-1-yl)acetamido)-2-(3,5-difluorophenyl)ethyl)pyridin-3-yl)-2-fluorobenzamide]: the CC50 at 5 days in data set [1] came out at 16400 nM. Further, in data set [2], the inhibition at 2 µM came out at 0%.
In data set [1], `NC(=O)c1cccc(-c2cccnc2[C@H](Cc2cc(F)cc(Cl)c2)NC(=O)Cc2c[nH]c3ccc(O)cc23)c1` [Example 245F, (S)-3-(2-(2-(3-chloro-5-fluorophenyl)-1-(2-(5-hydroxy-1H-indol-3-yl)acetamido)ethyl)pyridin-3-yl)benzamide] displayed a 50% cytotoxic concentration (CC50) at 5 days of 30300 nM. Also, the inhibition at 2 µM in data set [2] was 71%.
For `NC(=O)c1cc(-c2cccnc2[C@H](Cc2cc(F)cc(F)c2)NC(=O)CC2C(=O)Nc3cc(F)ccc32)ccc1F` (stereo partly drawn) [Example 246, 5-(2-((1S)-2-(3,5-difluorophenyl)-1-(2-(6-fluoro-2-oxoindolin-3-yl)acetamido)ethyl)pyridin-3-yl)-2-fluorobenzamide], the CC50 at 5 days in data set [1] was 47900 nM. Further, in data set [2], the inhibition at 2 µM is 1%.
In the same order, the values of `CCOc1ccc(-c2cccnc2[C@H](Cc2cc(F)cc(F)c2)NC(=O)Cn2nc(C(F)F)c3c2C(F)(F)C2CC32)cc1` (stereo partly drawn) [Example 247, 2-(3-(difluoromethyl)-5,5-difluoro-3b,4,4a,5-tetrahydro-1H-cyclopropa[3,4]cyclopenta[1,2-c]pyrazol-1-yl)-N—((S)-2-(3,5-difluorophenyl)-1-(3-(4-ethoxyphenyl)pyridin-2-yl)ethyl)acetamide] are 26300 nM and 39%.
In data set [1], `NC(=O)c1cc(-c2cccnc2[C@H](Cc2cc(F)cc(F)c2)NC(=O)Cn2nc(C(F)(F)F)c3c2CNC3)ccc1F` [Example 251, (S)-5-(2-(2-(3,5-difluorophenyl)-1-(2-(3-(trifluoromethyl)-5,6-dihydropyrrolo[3,4-c]pyrazol-1(4H)-yl)acetamido)ethyl)pyridin-3-yl)-2-fluorobenzamide] displayed a 50% cytotoxic concentration (CC50) at 5 days greater than 53200 nM. Further, the inhibition at 2 µM in data set [2] was found to be 1%.
`CC(C)c1cc(C(F)(F)F)nn1CC(=O)N[C@@H](Cc1cc(F)cc(F)c1)c1ncccc1-c1ccc(F)c(C(N)=O)c1` [Example 252, (S)-5-(2-(2-(3,5-difluorophenyl)-1-(2-(5-isopropyl-3-(trifluoromethyl)-1H-pyrazol-1-yl)acetamido)ethyl)pyridin-3-yl)-2-fluorobenzamide] returned a CC50 at 5 days in data set [1] of 19200 nM. Further, the inhibition at 2 µM in data set [2] came to 18%.
As to `NC(=O)c1cc(-c2cccnc2[C@H](Cc2cccc(F)c2)NC(=O)CC2C(=O)Nc3ccc(F)cc32)ccc1F` (stereo partly drawn) [Example 253, 2-fluoro-5-(2-((1S)-1-(2-(5-fluoro-2-oxoindolin-3-yl)acetamido)-2-(3-fluorophenyl)ethyl)pyridin-3-yl)benzamide], in data set [1], the 50% cytotoxic concentration (CC50) at 5 days was greater than 53200 nM. Moreover, the inhibition at 2 µM in data set [2] was 27%.
The matching figures for `N#Cc1nn(CC(=O)N[C@@H](Cc2cc(F)cc(F)c2)c2ncccc2-c2ccc(F)c(C(N)=O)c2)c2c1C1CC1C2(F)F` (stereo partly drawn) [Example 254, 5-(2-((1S)-1-(2-(3-cyano-5,5-difluoro-3b,4,4a,5-tetrahydro-1H-cyclopropa[3,4]cyclopenta[1,2-c]pyrazol-1-yl)acetamido)-2-(3,5-difluorophenyl)ethyl)pyridin-3-yl)-2-fluorobenzamide]: 16600 nM and 91%.

The values are drawn from US9540343B2 (Gilead Sciences, Inc., priority 2011, dated 2017).
